According to patent US12653860B2, “Compositions and methods for editing beta-globin for treatment of hemaglobinopathies” (Vertex Pharmaceuticals Incorporated, priority 2019, dated 2026):
Strand notation (5' to 3'): a small letter for the sugar, then the base; units joined by * are phosphorothioate-linked, units joined directly phosphodiester-linked; [ ] holds rarer units or linkages, { } end groups; capitals alone tell only the bases. m = 2'-O-methyl; r = 2'-OH (RNA)

Assays:
[1] = tested on: HBB gene locus in CD34-expressing LT-HSPCs; test: HDR insertion of GFP donor at HBB gene locus with DNA-PK inhibitor (percentage of cells expressing GFP); format: cell-based, human; settings: for level of HDR repair (cells expressing GFP): day 2 post-editing, FIG. 37A
Description: The effect of DNA-PK inhibition using Compound 296 was compared to the effect of 53BP1 inhibition using i53 for increased HDR repair of the HBB gene locus with donor DNA encoding GFP.
The efficiency of HDR for repair of the HBB gene with donor encoding GFP was determined by measuring the percentage of cells expressing GFP following electroporation.
(§1) Edited cells were evaluated for GFP fluorescence on day 2 post-editing using flow cytometry, and viability was determined via staining with Tryphan Blue.

[2] = tested on: CD34-expressing LT-HSPCs; test: Viability of edited LT-HSPCs by Tryphan Blue staining; format: cell-based, human
Description: as §1
(§2) Edited cells were evaluated for viability as described above, and for incorporation of gene-edits at 2 days post-electroporation. […] The frequency of INDELs induced at the R02 cut site was also evaluated by NGS analysis.

[3] = tested on: HBB gene locus in CD34-expressing LT-HSPCs; test: HDR efficiency at HBB gene with R02 RNP+AAV.307 and DNA-PK inhibitors, NGS; format: cell-based, human
Description: (§3) Editing was performed as described above. However, the cells were electroporated with AAV.307 administered 1 hour prior to electroporation at a dose of 10,000 MOI. The cells were electroporated with compound 296 at a concentration ranging from 0.005 μM to 10 μM, with compound 984 at a concentration ranging from 0.005 μM to […], or with 1 μg i53 mRNA. Negative control cells were electroporated with RNP+AAV only or RNP only.
as §2

[4] = tested on: HBB gene locus in CD34-expressing LT-HSPCs; test: INDEL frequency and species at R02 cut site with DNA-PK inhibitors, NGS; format: cell-based, human
Description: as §3, §2
The INDELs species identified for cells edited in Experiment 2 were further evaluated to determine frequency of repair by NHEJ or MMEJ repair pathways. An INDEL of 1 nt was considered due to NHEJ repair; a deletion of −9 nt was considered due to MMEJ repair based on the microhomology present on either side of the R02 cut site. Based on percentage of total reads corresponding to these INDEL species, the ratio of gene edits due to NHEJ and MMEJ repair was evaluated.

[5] = biological target: DNA-PK catalytic subunit (DNA-PKcs) (Homo sapiens, UniProt P78527); settings: reported, U.S. Pat. No. 9,592,232; cited from earlier work
[6] = tested on: BFP gene encoded in the AAVS1 locus of HEK293 T cells; test: BFP to GFP reporter assay of HDR repair (flow cytometry); format: cell-based; settings: different concentrations or doses; FIG. 1B, 1C
Description: An in vitro assay was conducted to determine the ability of various inhibitors and enhancers to improve the efficiency of HDR repair in HEK293 T cells. Specifically, a fluorescent reporter-based screening approach was developed to identify molecules that enhance gene-editing by HDR. A reporter system was generated in HEK293 T cells comprising a genomic AAVS1 locus that encoded either a blue fluorescent protein (BFP) or a green fluorescent protein (GFP) within the AAVS1 locus. A gene encoding BFP can be converted to a gene encoding GFP by substitution of cytosine at position 199 to uridine (e.g., a C to U transition at position 199). By introducing a DSB within the BFP gene using a CRISPR/Cas9 gene-editing system, a homology donor DNA encoding the nucleotide substitution can be used to edit the BFP gene to a GFP gene by HDR repair. Thus, a gene edit that induces a C to U transition at position 199 results in a change in cellular fluorescence. A change in the fluorescence of the cell measured by flow cytometry can be used to quantify efficiency of HDR repair. Additionally, the reverse gene edit can be performed for an AAVS1 locus encoding a GFP gene, wherein a GFP can be converted to BFP by substitution of uridine at position 199 to cytosine.
To create the reporter system, an AAV-based homology donor DNA encoding either BFP or GFP was created. The AAV-BFP or AAV-GFP donor was flanked by homology arms that were 1000 base pairs in length and expression of BFP or GFP was driven by the MND promoter (e.g., a synthetic promoter that contains the U3 region of a modified Moloney murine leukemia virus long term terminal repeat with myeloproliferative sarcoma virus enhancer and deleted negative control region, SEQ ID NO: 58). The viral DNA was packaged into capsids of adeno-associated virus serotype 6 (AAV6) vector. Either the BFP or GFP donor was introduced using the AAV6 vector into the AAVS1 locus in HEK293 T cells by homologous recombination using CRISPR-Cas9 as follows: purified Cas9 protein was complexed with two different single gRNAs (sgRNAs) targeting the AAVS1 locus at SEQ ID NO: 3 (spacer sequence identified by SEQ ID NO: 4; gRNA obtained from Maxcyte) or SEQ ID NO: 5 (spacer sequence identified by SEQ ID NO: 6; gRNA obtained from Thermo Fisher). Cas9 protein used in the Exemplary section provided herein refers to Cas9 polypeptide derived from S pyogenes (SpCas9), unless indicated otherwise.
The Cas9-sgRNA complex was electroporated into the HEK293 T cells using the Lonza Nucleofector program CM-130. Approximately, 2 hours after electroporation, the cells were infected with various viral doses of AAV6 encoding a BFP (SEQ ID NO: 44) or GFP homology donor (SEQ ID NO: 47). One week later, cells were analyzed by flow cytometry to verify integration and expression of BFP or GFP in the AAVS1 locus. HEK293 T cells expressing BFP or GFP were sorted into single cells in 96-well plates. After −2 weeks of growth, DNA extracted from individual cells was analyzed for precise integration of the respective BFP or GFP gene into the AAVS1 locus by long-range PCR. This PCR analysis allowed for determination of whether the BFP/GFP gene was integrated in one or both alleles of the AAVS1 locus.
To introduce a gene edit that converts BFP to GFP, cells were electroporated with ribonucleoprotein (RNP) comprised of Cas9 and sgRNA that targets the BFP gene encoded in the AAVS1 locus. The sgRNA targeted a sequence in the BFP gene identified by SEQ ID NO: 7 (sgRNA spacer sequence identified by SEQ ID NO: 8). The sgRNA were prepared using a standard sgRNA cassette specific to SpCas9, as indicated by SEQ ID NO: 2 (wherein a, c, g, u represent 2′ O-methyl phosphorothioate nucleotides; s represents phosphorothioate nucleotides; and A, C, G, U, N represent canonical RNA nucleotides). The gRNAs used in the Exemplary section provided herein were sgRNAs prepared with the SpCas9 sgRNA cassette unless indicated otherwise. […]

[7] = tested on: HBB locus in CD34-expressing LT-HSPCs; test: HDR insertion of AAV GFP donor at HBB locus (GFP fluorescence); format: cell-based, human; settings: i53 mRNA 0.5, 1, 2 g (FIG. 6A) or 0.3 g, 1 g (FIG. 6B); CYREN1 or CYREN2 mRNA; any dose of XL413 (data not shown)
Description: Frozen CD34-expressing LT-HSPCs derived from plerixafor (i.e., Mozibil®)+GCSF-dual mobilized peripheral blood obtained from healthy human donors were purchased from a commercial vendor. LT-HSPCs were maintained in culture media comprised of the reagents shown in Table 4 and were incubated at 37° C., 5% carbon dioxide, 4% oxygen. […] 2×10^5 cells were edited with 3 g Cas9 and 3 g gRNA. The target gene sequence (including target sequence with PAM), R02 spacer sequence, and R02 sgRNA sequence are identified in Table 3.
The cells were transfected with a dsDNA homology donor encoding GFP under a SFFV promoter (SEQ ID NO: 60) that was delivered by AAV (SEQ ID NO: 56). […] The HDR efficiency was determined by measuring the level of GFP fluorescence in the cells following electroporation. To determine the effect of 53BP1 inhibition on HDR efficiency, the 53BP1 inhibitor i53 was introduced as an mRNA-encoded protein to the cells during electroporation with Cas9/gRNA RNP and AAV DNA that serves as a donor for homology directed repair.
The effect of 53BP1 inhibition on HDR efficiency was compared to other mRNA-encoded proteins that inhibit the NHEJ pathway. These included the proteins CYREN1 and CYREN2 that inhibit Ku70/80, a heterodimer that binds DNA blunt ends to prevent processing of 3′ single-stranded DNA tails necessary for HDR repair. Cells were electroporated with RNP, an AAV-GFP homology donor and mRNA encoding either i53 (mRNA ORF shown in SEQ ID NO: 69), CYREN1, or CYREN2.
The effect of treatment with i53 and Nu7441 was compared for improving efficiency of HDR repair of the HBB locus. Cells were treated with different doses of Nu7441 or with mRNA encoding i53 (ORF shown by SEQ ID NO: 69).

[8] = tested on: genomic DNA; test: GUIDE-Seq screen of candidate off-target sites; format: cell-based
From the text: The second approach was to screen candidate off-target sites using GUIDE-Seq (see, e.g., Tsai et al (2015) NAT BIOTECHNOL. 33:187). Based on this approach, 36 sites in the genomic DNA were identified as undergoing off-target CRISPR/Cas9 cleavage using the R02 gRNA.

With `CNC(=O)c1ccnc2c([C@H](C)CNc3cc(-c4cnc(C)nc4)ncn3)cccc12` [Compound 296] the “level of HDR repair vs i53 mRNA” value ([1]; 1.1 μM, 3.3 μM, or 10 μM, FIG. 37B) was “comparable to cells edited with i53 mRNA”, the “level of HDR repair (cells expressing GFP)” value ([1]; 1.1 μM) was 53.5% and the “level of HDR repair (cells expressing GFP)” value ([1]; 3.3 μM) was 56.5%. For the same molecule, the “level of HDR repair (cells expressing GFP)” value ([1]; 10 μM) was 55.9%, the “viability of edited cells” value ([2]; AAV.307, each concentration used, Experiment 2, FIG. 38C) was over 80% and the “viability of edited cells” value ([2]; GFP donor, each concentration evaluated (0.014 μM to 10 μM), FIG. 37A) was over 80%. For the same molecule, the HDR efficiency ([3]; 3.3 μM, R02 RNP+AAV.307) was 80%, the “HDR efficiency, fold higher than R02 RNP+AAV only” value ([3]; 0.37-10 μM) was “at least 1.6 fold” and the “level of HDR repair” value ([3]; 0.37-10 M, R02 RNP+AAV.307, FIGS. 38A-38B) was at least 70%. The “frequency of INDELs, fold reduced compared to R02 RNP only” value ([4]; 0.37-10 μM) was “at least 4.6 fold”, the “INDEL species due to MMEJ repair (−9 nt deletion)” value ([4]; Experiment 2, FIG. 38D) was “only a modest reduction” and the “fold decrease in INDELs due to NHEJ repair (INDEL of 1 nt)” value ([4]; Experiment 2, FIG. 38D) was at most 30 fold. The “affinity and selectivity for DNA-PK” value [5] was “high affinity and selectivity”.

In the case of `[2H]c1nc(C)nc([2H])c1-c1cc(NC[C@@H](C)c2cccc3c(C(=O)NC)ccnc23)ncn1` [Compound 984], the viability following editing ([2]; particularly at minimal effective concentrations) is reported as “good viability”, the HDR efficiency ([3]; 3.3 μM or 10 μM, R02 RNP+AAV.307, FIGS. 39A-39B) is reported as over 80% and the “level of HDR repair” value ([3]; 0.37-10 μM, FIGS. 39A-39B) is reported as “high”. The “frequency of INDELs, fold reduced compared to R02 RNP only” value ([4]; 3.3 μM or 10 μM, FIGS. 39A-39B) was “approximately 8 fold” and the “affinity and selectivity for DNA-PK” value [5] was “high affinity and selectivity”.

For `CCCCCCNC(=O)Nc1ccc(S(=O)(=O)Nc2ccc(CCNC[C@H](O)COc3ccc(O)cc3)cc2)cc1` [L755,507], the “HDR efficiency (improvement)” value [6] was “no improvement in HDR efficiency”.

With `C[C@]1(c2nc3c(C(N)=O)cccc3[nH]2)CCCN1` [Veliparib] the “HDR efficiency (improvement)” value [6] was “no improvement in HDR efficiency”.

For `Cl.O=c1[nH]c([C@@H]2CCCN2)nc2c1oc1ccc(Cl)cc12` [XL413], the “HDR efficiency vs RNP+AAV-only” value [7] was “no improvement in HDR efficiency”.

B1: R02 gRNA: sgRNA targeting the HBB locus, SEQ ID NO: 17 (spacer SEQ ID NO: 16) (nucleic acid)
guide: mC*mU*mU*rGrCrCrCrCrArCrArGrGrGrCrArGrUrArArGrUrUrUrUrArGrArGrCrUrArGrArArArUrArGrCrArArGrUrUrArArArArUrArArGrGrCrUrArGrUrCrCrGrUrUrArUrCrArArCrUrUrGrArArArArArGrUrGrGrCrArCrCrGrArGrUrCrGrGrUrGrCmU*mU*mU*rU
For B1, the “number of genomic sites identified as undergoing off-target CRISPR/Cas9 cleavage” value [8] was 36.
